According to patent US5358951A, “Angiotensin II receptor blocking 2, 3, 6 substituted quinazolinones” (American Cyanamid Company, priority 1993, dated 1994):

System: vasopressor response of angiotensin II
Assay: AII Challenge: antagonism of angiotensin II vasopressor response;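 for Response Average Change: post-dose Angiotensin II-evoked rise in systolic blood pressure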
Assay type: in vivo
Details: for inhibition in vivo at 3 mg/kg / inhibition in vivo at 5 mg/kg: Rattus norvegicus
Summary of the method: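 Conscious male SHR (16-20 weeks) with aortic and caval cannulae received angiotensin II at 0.05 and 0.1 ug/kg i.v. before and 30-300 min after compound dosing (i.v., i.p. or oral). Blockade is expressed as % of each rat's predose rise in systolic pressure.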

[1] = 3 mg/kg I.V., AII 0.05 mcg/kg IV, 30 min post dose
[2] = 3 mg/kg I.V., AII 0.05 mcg/kg IV, 90 min post dose
[3] = 3 mg/kg I.V., AII 0.05 mcg/kg IV, 120 min post dose
[4] = 3 mg/kg I.V., AII 0.05 mcg/kg IV, 180 min post dose
[5] = 3 mg/kg I.V., AII 0.05 mcg/kg IV, 240 min post dose
[6] = 3 mg/kg I.V., AII 0.1 mcg/kg IV, 30 min post dose
[7] = 3 mg/kg I.V., AII 0.1 mcg/kg IV, 60 min post dose
[8] = 3 mg/kg I.V., AII 0.1 mcg/kg IV, 90 min post dose
[9] = 3 mg/kg I.V., AII 0.1 mcg/kg IV, 120 min post dose
[10] = 3 mg/kg I.V., AII 0.1 mcg/kg IV, 180 min post dose
[11] = 3 mg/kg I.V., AII 0.1 mcg/kg IV, 240 min post dose
[12] = 5 mg/kg P.O., AII 0.05 mcg/kg IV, 60 min post dose
[13] = 5 mg/kg P.O., AII 0.05 mcg/kg IV, 120 min post dose
[14] = 5 mg/kg P.O., AII 0.1 mcg/kg IV, 60 min post dose
[15] = iv, 0.5 h, 3 mg/kg I.V., AII 0.05 mcg/kg IV, 30 min post dose
[16] = iv, 0.5 h, 3 mg/kg I.V., AII 0.1 mcg/kg IV, 30 min post dose
[17] = iv, 1 h, 3 mg/kg I.V., AII 0.1 mcg/kg IV, 60 min post dose
[18] = iv, 2 h, 3 mg/kg I.V., AII 0.1 mcg/kg IV, 120 min post dose
[19] = iv, 3 h, 3 mg/kg I.V., AII 0.05 mcg/kg IV, 180 min post dose
[20] = iv, 3 h, 3 mg/kg I.V., AII 0.1 mcg/kg IV, 180 min post dose
[21] = iv, 4 h, 3 mg/kg I.V., AII 0.05 mcg/kg IV, 240 min post dose
[22] = iv, 4 h, 3 mg/kg I.V., AII 0.1 mcg/kg IV, 240 min post dose
[23] = iv, […], 3 mg/kg I.V., AII 0.05 mcg/kg IV, 90 min post dose
[24] = iv, […], 3 mg/kg I.V., AII 0.1 mcg/kg IV, 90 min post dose
[25] = po, 0.5 h, 5 mg/kg P.O., AII 0.05 mcg/kg IV, 30 min post dose
[26] = po, 1 h, 5 mg/kg P.O., AII 0.05 mcg/kg IV, 60 min post dose
[27] = po, 1 h, 5 mg/kg P.O., AII 0.1 mcg/kg IV, 60 min post dose
[28] = po, 2 h, 5 mg/kg P.O., AII 0.05 mcg/kg IV, 120 min post dose
[29] = po, 3 h, 5 mg/kg P.O., AII 0.05 mcg/kg IV, 180 min post dose
[30] = po, 3 h, 5 mg/kg P.O., AII 0.1 mcg/kg IV, 180 min post dose
[31] = po, […], 5 mg/kg P.O., AII 0.05 mcg/kg IV, 90 min post dose
[32] = po, […], 5 mg/kg P.O., AII 0.1 mcg/kg IV, 90 min post dose
[33] = 1 mg/kg P.O., AII 0.05 mcg/kg IV, 60 min post dose
[34] = 1 mg/kg P.O., AII 0.05 mcg/kg IV, 90 min post dose
[35] = 1 mg/kg P.O., AII 0.05 mcg/kg IV, 120 min post dose
[36] = 1 mg/kg P.O., AII 0.05 mcg/kg IV, 180 min post dose
[37] = 1 mg/kg P.O., AII 0.05 mcg/kg IV, 240 min post dose
[38] = 1 mg/kg P.O., AII 0.1 mcg/kg IV, 60 min post dose
[39] = 1 mg/kg P.O., AII 0.1 mcg/kg IV, 90 min post dose
[40] = 1 mg/kg P.O., AII 0.1 mcg/kg IV, 120 min post dose
[41] = 1 mg/kg P.O., AII 0.1 mcg/kg IV, 180 min post dose
[42] = 1 mg/kg P.O., AII 0.1 mcg/kg IV, 240 min post dose

CCCCc1nc2ccc([C@@H]3C[C@H]4c5ccccc5CCN4O3)cc2c(=O)n1Cc1ccc(-c2ccccc2-c2nnn[nH]2)cc1 (relative stereo) [Example 63, Cis-2-Butyl-6-(1,5,6,10b-tetrahydro-2H-isoxazolo[3,2-a]isoquinolin-2-yl)-3-[[2'-(1H-tetrazol5-yl)[1,1'-biphenyl]-4-yl]methyl]-4(3H)-quinazolinone]
Response Average Change [1]: 10.5 mmHg | Response Average Change [2]: 10 mmHg | Response Average Change [3]: 10 mmHg | Response Average Change [4]: 17.5 mmHg | Response Average Change [5]: 12.5 mmHg | Response Average Change (3 mg/kg I.V., AII 0.05 mcg/kg IV, 300 min post dose): 23.5 mmHg | Response Average Change [6]: 10 mmHg | Response Average Change [7]: 15 mmHg | Response Average Change [8]: 17.5 mmHg | Response Average Change [9]: 17.5 mmHg | Response Average Change [10]: 22.5 mmHg | Response Average Change [11]: 23 mmHg | Response Average Change (3 mg/kg I.V., AII 0.1 mcg/kg IV, 300 min post dose): 25 mmHg | Response Average Change (3 mg/kg I.V., AII 0.5 mcg/kg IV, 60 min post dose): 10 mmHg | Response Average Change (5 mg/kg P.O., AII 0.05 mcg/kg IV, 30 min post dose): 22.5 mmHg | Response Average Change [12]: 30 mmHg | Response Average Change (5 mg/kg P.O., AII 0.05 mcg/kg IV, 90 min post dose): 20 mmHg | Response Average Change [13]: 16.5 mmHg | Response Average Change (5 mg/kg P.O., AII 0.05 mcg/kg IV, 180 min post dose): 20 mmHg | Response Average Change (5 mg/kg P.O., AII 0.1 mcg/kg IV, 30 min post dose): 35 mmHg | Response Average Change [14]: 42.5 mmHg | Response Average Change (5 mg/kg P.O., AII 0.1 mcg/kg IV, 90 min post dose): 34 mmHg | Response Average Change (5 mg/kg P.O., AII 0.1 mcg/kg IV, 120 min post dose): 32.5 mmHg | Response Average Change (5 mg/kg P.O., AII 0.1 mcg/kg IV, 180 min post dose): 24 mmHg | inhibition in vivo at 3 mg/kg [15]: 70% | inhibition in vivo at 3 mg/kg [16]: 73% | inhibition in vivo at 3 mg/kg [17]: 60% | inhibition in vivo at 3 mg/kg (iv, 1 h, 3 mg/kg I.V., AII 0.5 mcg/kg IV, 60 min post dose): 71% | inhibition in vivo at 3 mg/kg (iv, 2 h, 3 mg/kg I.V., AII 0.05 mcg/kg IV, 120 min post dose): 71% | inhibition in vivo at 3 mg/kg [18]: 53% | inhibition in vivo at 3 mg/kg [19]: 50% | inhibition in vivo at 3 mg/kg [20]: 40% | inhibition in vivo at 3 mg/kg [21]: 64% | inhibition in vivo at 3 mg/kg [22]: 39% | inhibition in vivo at 3 mg/kg (iv, 5 h, 3 mg/kg I.V., AII 0.05 mcg/kg IV, 300 min post dose): 33% | inhibition in vivo at 3 mg/kg (iv, 5 h, 3 mg/kg I.V., AII 0.1 mcg/kg IV, 300 min post dose): 33% | inhibition in vivo at 3 mg/kg [23]: 71% | inhibition in vivo at 3 mg/kg [24]: 53% | inhibition in vivo at 5 mg/kg [25]: 49% | inhibition in vivo at 5 mg/kg (po, 0.5 h, 5 mg/kg P.O., AII 0.1 mcg/kg IV, 30 min post dose): 18% | inhibition in vivo at 5 mg/kg [26]: 32% | inhibition in vivo at 5 mg/kg [27]: 0% | inhibition in vivo at 5 mg/kg [28]: 63% | inhibition in vivo at 5 mg/kg (po, 2 h, 5 mg/kg P.O., AII 0.1 mcg/kg IV, 120 min post dose): 24% | inhibition in vivo at 5 mg/kg [29]: 55% | inhibition in vivo at 5 mg/kg [30]: 44% | inhibition in vivo at 5 mg/kg [31]: 55% | inhibition in vivo at 5 mg/kg [32]: 20%

CCCCc1nc2ccc([C@@]3(C)C[C@@H]4CCCN4O3)cc2c(=O)n1Cc1ccc(-c2ccccc2-c2nnn[nH]2)cc1 (relative stereo) [Example 58, Cis-(+/-)-2-Butyl-6-(hexahydro-2-methylpyrrolo[1,2-1,2-b]isoxazol-2-yl) -3-[[2'-(1H-tetrazol-5-yl) [1,1'-biphenyl]-4-yl]methyl]-4(3H)-quinazolinone]
% Inhibition [33]: 62% | Response Average Change [33]: 16 mmHg | % Inhibition [34]: 68% | Response Average Change [34]: 13.5 mmHg | % Inhibition [35]: 67% | Response Average Change [35]: 14 mmHg | % Inhibition [36]: 82% | Response Average Change [36]: 7.5 mmHg | % Inhibition [37]: 82% | Response Average Change [37]: 7.5 mmHg | % Inhibition [38]: 37% | Response Average Change [38]: 30 mmHg | % Inhibition [39]: 44% | Response Average Change [39]: 26.5 mmHg | % Inhibition [40]: 53% | Response Average Change [40]: 22.5 mmHg | % Inhibition [41]: 56% | Response Average Change [41]: 21 mmHg | % Inhibition [42]: 68% | Response Average Change [42]: 15 mmHg | Response Average Change [1]: 0 mmHg | Response Average Change (3 mg/kg I.V., AII 0.05 mcg/kg IV, 60 min post dose): 5 mmHg | Response Average Change [2]: 2.5 mmHg | Response Average Change [3]: 5 mmHg | Response Average Change [4]: 6.5 mmHg | Response Average Change [5]: 7.5 mmHg | Response Average Change [6]: 10 mmHg | Response Average Change [7]: 4 mmHg | Response Average Change [8]: 2.5 mmHg | Response Average Change [9]: 10 mmHg | Response Average Change [10]: 6.5 mmHg | Response Average Change [11]: 4 mmHg | % Inhibition [12]: 94% | Response Average Change [12]: 2.5 mmHg | Response Average Change [13]: 5 mmHg | Response Average Change (5 mg/kg P.O., AII 0.05 mcg/kg IV, 300 min post dose): 1 mmHg | % Inhibition [14]: 100% | Response Average Change [14]: 0 mmHg | inhibition in vivo at 3 mg/kg [15]: 100% | inhibition in vivo at 3 mg/kg [16]: 78% | inhibition in vivo at 3 mg/kg [17]: 91% | inhibition in vivo at 3 mg/kg [18]: 78% | inhibition in vivo at 3 mg/kg [19]: 83% | inhibition in vivo at 3 mg/kg [20]: 86% | inhibition in vivo at 3 mg/kg [21]: 81% | inhibition in vivo at 3 mg/kg [22]: 91% | inhibition in vivo at 3 mg/kg [23]: 94% | inhibition in vivo at 3 mg/kg [24]: 94% | inhibition in vivo at 3 mg/kg (po, 0.5 h, 3 mg/kg P.O., AII 0.05 mcg/kg IV, 30 min post dose): 75% | inhibition in vivo at 5 mg/kg [25]: 90% | inhibition in vivo at 3 mg/kg (po, 1 h, 3 mg/kg P.O., AII 0.05 mcg/kg IV, 60 min post dose): 92% | inhibition in vivo at 3 mg/kg (po, 1 h, 3 mg/kg P.O., AII 0.1 mcg/kg IV, 60 min post dose): 67% | inhibition in vivo at 5 mg/kg [26]: 94% | inhibition in vivo at 5 mg/kg [27]: 100% | inhibition in vivo at 3 mg/kg (po, 2 h, 3 mg/kg P.O., AII 0.05 mcg/kg IV, 120 min post dose): 67% | inhibition in vivo at 3 mg/kg (po, 2 h, 3 mg/kg P.O., AII 0.1 mcg/kg IV, 120 min post dose): 91% | inhibition in vivo at 5 mg/kg [28]: 88% | inhibition in vivo at 3 mg/kg (po, 3 h, 3 mg/kg P.O., AII 0.05 mcg/kg IV, 180 min post dose): 75% | inhibition in vivo at 3 mg/kg (po, 3 h, 3 mg/kg P.O., AII 0.1 mcg/kg IV, 180 min post dose): 74% | inhibition in vivo at 5 mg/kg [29]: 75% | inhibition in vivo at 5 mg/kg [30]: 89% | inhibition in vivo at 5 mg/kg (po, 4 h, 5 mg/kg P.O., AII 0.05 mcg/kg IV, 240 min post dose): 93% | inhibition in vivo at 3 mg/kg (po, 5 h, 3 mg/kg P.O., AII 0.05 mcg/kg IV, 300 min post dose): 57% | inhibition in vivo at 5 mg/kg (po, 5 h, 5 mg/kg P.O., AII 0.05 mcg/kg IV, 300 min post dose): 98% | inhibition in vivo at 5 mg/kg (po, 5 h, 5 mg/kg P.O., AII 0.1 mcg/kg IV, 300 min post dose): 84% | inhibition in vivo at 3 mg/kg (po, […], 3 mg/kg P.O., AII 0.05 mcg/kg IV, 90 min post dose): 75% | inhibition in vivo at 5 mg/kg [31]: 88% | inhibition in vivo at 5 mg/kg [32]: 84%
